Test results published in the supplement of paper PMC10307832.

Columns and labels:
Assay in all cases: relative viability (nuclei count vs DMSO), 5 days (fraction); higher = more cells survive
[1] = compound: O=c1[nH]cc(F)c(=O)[nH]1 [5-Fluorouracil] + COc1cccc2cc(-c3nc([C@H]4CC[C@H](C(=O)O)CC4)n4ncnc(N)c34)[nH]c12 [OSI-027] (partner 0.5 µM)
In short: (§1)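 Lung cancer cell lines in 1536-well plates got either a single drug or a fixed anchor-drug dose together with five library-drug doses (not always all listed) in √10 steps, by pin tool, on the day after seeding. Nuclei were counted after 5 days, and relative viability is the treated-to-vehicle ratio of nuclei counts. Values are medians of duplicate plates.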

[2] = compound: CC1=C(CC(=O)O)c2cc(F)ccc2/C1=C\c1ccc([S+](C)[O-])cc1 [Sulindac] + COc1cccc2cc(-c3nc([C@H]4CC[C@H](C(=O)O)CC4)n4ncnc(N)c34)[nH]c12 [OSI-027] (partner 0.5 µM)
In short: as §1

[3] = compound: CN[C@@H]1C[C@H]2O[C@@](C)([C@@H]1OC)n1c3ccccc3c3c4c(c5c6ccccc6n2c5c31)C(=O)NC4 [Staurosporine] + NC(=O)Nc1cc(-c2cccc(F)c2)sc1C(=O)N[C@H]1CCCNC1 [AZD7762] (partner 0.2 µM)
In short: as §1

[4] = compound: O=c1[nH]cc(F)c(=O)[nH]1 [5-Fluorouracil] + N=C(N)NC(=N)NCCc1ccccc1 [Phenformin] (partner 250 µM)
In short: as §1

Cell Line	relative viability ([1]; first compound 0.02 µM)	relative viability ([1]; first compound 0.2 µM)	relative viability ([1]; first compound 0.6325 µM)	relative viability ([1]; first compound 2 µM)	relative viability ([2]; first compound 0.08 µM)	relative viability ([2]; first compound 0.253 µM)	relative viability ([2]; first compound 0.8 µM)	relative viability ([2]; first compound 2.53 µM)	relative viability ([2]; first compound 8 µM)	relative viability ([3]; first compound 0.005 µM)	relative viability ([3]; first compound 0.05 µM)	relative viability ([3]; first compound 0.1581 µM)	relative viability ([3]; first compound 0.5 µM)	relative viability ([4]; first compound 0.02 µM)	relative viability ([4]; first compound 0.2 µM)	relative viability ([4]; first compound 0.6325 µM)	relative viability ([4]; first compound 2 µM)	relative viability ([3]; first compound 0.01581 µM)
ChaGo-K-1	0.608	0.536	0.401	0.425	0.68	0.644	0.398	0.57	0.61	0.912	0.615	0.148	0.135	0.526	0.476	0.433	0.348	
COR-L 105	0.649	0.899	0.66	0.443	0.653	0.747	0.498	0.635	0.843					0.452	0.495	0.45	0.337	
NCI-H2170	0.681	0.594	0.459	0.37	0.694	0.72	0.684	0.739	0.756	1.05	0.43	0.0989	0.15	0.393	0.42	0.341	0.293	
A549														0.172	0.258	0.153	0.0868	
NCI-H460	0.803	0.35	0.0996	0.0548	1.5	0.811	0.566	0.688	0.77	0.656	0.741	0.0465	0.0251	0.551	0.447	0.109	0.0647	0.532
NCI-H1993	0.565	0.501	0.538	0.537	0.513	0.554	0.495	0.542	0.581	0.676	0.407	0.331	0.296	0.538	0.514	0.494	0.459	0.39
SW 900	0.505	0.501	0.44	0.423		0.566		0.42	0.555	0.413	0.31	0.157	0.151	0.505	0.618	0.498	0.465	0.337
NCI-H1623	0.384	0.339	0.339	0.323	0.401	0.427	0.415	0.409	0.421					0.45	0.582	0.364	0.335	
NCI-H322M	0.534	0.563	0.486	0.449	0.6	0.534	0.442	0.557	0.602	0.552	0.527	0.393	0.425	0.857	0.743	0.724	0.541	0.456
NCI-H2405	0.633	0.661	0.701	0.604	0.664	0.711	0.736	0.602	0.685	0.239	0.112		0.0865	0.394	0.409	0.34	0.369	0.141
